What was measured:
Assay type in all cases: cell-based
hepatitis B virus = experiment: Hepatitis B virus replication in HepAD38 cells (genome equivalents in intracellular virions, core antigen immunoblots, viral RNA PCR); settings: HepAD38 cells without tetracycline 10 days, 250 nM or 500 nM added on day 8 for 48 h or day 9 for 24 h
Procedure: (§1) FIGS. 7A-D show enhanced expression of the Suz12 repressed genes and proliferation genes in the presence of hepatitis B virus replication. […] HepAD38 cells were grown with (+) or without (−) tetracycline for 10 days, i.e. without (−) or with (+) hepatitis B virus replication, respectively. Hepatitis B virus genome equivalents were quantified by real-time PCR of DNA isolated from purified intracellular virions as described (Wang et al., Hepatology, 53:1137-47, 2011). (Left panel) Effect of DMSO addition (5.0 μl) on hepatitis B virus replication. (Right panel) 250 nM or 500 nM BI 2536 dissolved in DMSO (5.0 μl) added on day 8 for 48 h or day 9 for 24 h, as indicated, prior to cell harvesting. Results represent the average of three independent experiments. Error bars indicate+/−standard 1 error of the mean. […] Relative intensity of indicated protein levels was quantified by ImageJ software vs. actin. […] Quantification is relative to GAPDH used as internal control. […]
(§2) Whole cell extract isolated without (−) or with (+) 1 addition of BI 2536 were immunoblotted for hepatitis B virus core antigen, caspase 3 and cleaved/active caspase. […] Expression of viral RNA was quantified by real-time PCR employing primer pairs described by Zhang et al. (Hepatology 53:1476-1485, 2011). […] Quantification of indicated proteins is by ImageJ software vs. actin. […]

HepAD38 cells = experiment: Apoptosis in HBV-replicating HepAD38 cells by immunoblot of pro-caspase-3 and caspase-3; settings: 250 nM or 500 nM added on day 8 for 48 h or day 9 for 24 h
Excerpt: Whole cell extract isolated without (−) or with (+) 1 addition of BI 2536 were immunoblotted for hepatitis B virus core antigen, caspase 3 and cleaved/active caspase. […] Expression of viral RNA was quantified by real-time PCR employing primer pairs described by Zhang et al. (Hepatology 53:1476-1485, 2011). Results are the average from two independent WCE preparations. Error bars indicate+/−standard error of the mean. […] Quantification of indicated proteins is by ImageJ software vs. actin. Results are the average from two independent WCE preparations. Error bars indicate+/−standard error of the mean.
(§3) Employing the HepAD38 cell line that supports hepatitis B virus replication following tetracycline removal (Ladner et al., Antimicrobial Agents and Chemotherapy, 41:1715-1720, 1997), viral replication as well as expression of the Suz12-repressed and proliferation cluster genes were quantified 10 days after induction of hepatitis B virus replication (FIG. 7). Also, the effect of Plk1 inhibition on viral replication and expression of the proliferation cluster and Suz12 target genes was investigated. […] Under these conditions of Plk1 inhibition, expression of the proliferation cluster and Suz12-repressed genes on day 10 of hepatitis B virus replication was quantified (FIG. 7C and D). Expression of both gene clusters increased in the presence of hepatitis B virus replication (FIG. 7C and D).

Suz12 and Znf198 = experiment: Immunoblots of Suz12 and Znf198 protein levels in HepAD38 cell lysates; settings: HepAD38 cells, day 10 of HBV replication; 500 nM for 24 h; vs. actin
Procedure: as §1, §2

[1] = system: proliferation gene cluster and Suz12 repressed genes; experiment: Real-time PCR of proliferation gene cluster and Suz12 repressed genes in HepAD38 cells; settings: day 10 of HBV replication, 500 nM for 24 h, relative to GAPDH
Procedure: FIGS. 7A-D show enhanced expression of the Suz12 repressed genes and proliferation genes in the presence of hepatitis B virus replication. […] HepAD38 cells were grown with (+) or without (−) tetracycline for 10 days, i.e. without (−) or with (+) hepatitis B virus replication, respectively. Hepatitis B virus genome equivalents were quantified by real-time PCR of DNA isolated from purified intracellular virions as described (Wang et al., Hepatology, 53:1137-47, 2011). (Left panel) Effect of DMSO addition (5.0 μl) on hepatitis B virus replication. (Right panel) 250 nM or 500 nM BI 2536 dissolved in DMSO (5.0 μl) added on day 8 for 48 h or day 9 for 24 h, as indicated, prior to cell harvesting. Results represent the average of three independent experiments. Error bars indicate+/−standard 1 error of the mean. […] Relative intensity of indicated protein levels was quantified by ImageJ software vs. actin. A representative experiment is shown from three independent experiments. […] Quantification is relative to GAPDH used as internal control. Results are from three independent RNA isolations. PCR assays were performed in triplicates. Error bars indicate+/−standard error of the mean.
cDNA was synthesized from 2.0 μg total RNA using iSCRIPT cDNA synthesis kit (Bio-Rad). Real-time PCR reactions were performed in triplicates and normalized to GAPDH.
as §3, with “Expression of both gene clusters increased in the presence of hepatitis B virus replication (FIG. 7C and D).” left out

## CC[C@@H]1C(=O)N(C)c2cnc(Nc3ccc(C(=O)NC4CCN(C)CC4)cc3OC)nc2N1C1CCCC1 [BI 2536]
Hepatitis B virus
  hepatitis B virus replication (genome equivalents in purified intracellular virions, core antigen immunoblots, viral RNA PCR): suppressed hepatitis B virus replication
Hepatitis B virus; listed as BI2536
  hepatitis B virus replication (genome equivalents in purified intracellular virions, core antigen immunoblots, viral RNA PCR): significantly reduced
HepAD38 cells
  apoptosis (levels of pro-caspase-3 and caspase-3): did not induce apoptosis
Suz12 and Znf198
  protein level of Suz12: increased
  protein level of Znf198: increased
[1]
  expression of the Suz12 repressed genes DKK2, EpCAM and IGFII: significantly decreased
  expression of the proliferation genes: significantly reduced
[1]; listed as BI2536
  expression of the Suz12 repressed genes DKK2, EpCAM and IGFII: significantly reduced

— patent publication US20140256735A1, “METHOD FOR ASSESSING A LIVER OF A PATIENT HAVING A CHRONIC HEPATITIS B VIRUS INFECTION” (PURDUE RESEARCH FOUNDATION, priority 2011, published 2014)
